Format in all cases: cell-based, human
For one test, the system named is eNOS-pThr495. Nature of the test: eNOS-pThr495 protein levels in HAECs. The following applies: for eNOS-pThr497/495 levels increase: HAECs, DL-Hcy 500 μmol/L or D-Glu 25 mmol/L. As to the method: (FIG. 7A). eNOS protein levels in mouse aorta of Cbs^−/+ mice (Left Panel) and HAECs (Right Panel). (FIG. 7B). eNOS-pThr497/495 protein levels in mouse aorta of Cbs^−/+ mice (Left Panel) and in HAECs (Right Panel). At the age of 8-week, Cbs^−/+ mice were fed with a high methionine diet (HM, methionine: 2% w/w) for 8 weeks, and/or injected with streptozotocin (STZ, i.p., 40 mg/kg) for 5 consecutive days starting from the first day of experiment. Mice fed with a control diet (CT, methionine: 0.37% w/w) and injected with vehicle (50 mmol/L citrate buffer) served as controls. Human aortic endothelial cells (HAECs, passage 8-9) were cultured in EC medium which contains 5 mmol/L D-glucose (D-Glu), treated with DL-homocysteine (DL-Hcy, 500 μmol/L) and/or D-Glu (25 mmol/L). (FIG. 7C). eNOS-pThr495 protein levels in HAECs. HAECs (passage 8-9) were cultured in EC medium which contains 5 mmol/L D-glucose (D-Glu), treated with DL-homocysteine (DL-Hcy, 500 μmol/L) and D-Glu (25 mmol/L for 48 hrs with or without non-specific PKC inhibitor GF109203X (GFX) (2 μmol/L, 30 min.); control adenoviruse (Ad-CT, 200 MOI, 72 hrs), dominant negative PKCβ2 adenovirus (Adv-dnPKCβ2, 200 MOI, 72 hrs); μ-calpain siRNA (μ-calpsiRNA, Santa Cruz #sc-29885, 72 hrs), or MDL ([…], 48 hrs, Sigma #M6690). (FIG. 7D). Transfection effect of Adv-dnPKCβ2in HAECs. Cultured HAECs (passage 8, 80% confluence) were treated with 12.5, 25, 50, 100 and 200 MOI Adv-dnPKCβ2 for 48 hrs. n=3, *p<0.05 vs control; †p<0.05 vs DL-Hcy-treated HAECs; ‡p<0.05 vs D-Glu-treated HAECs; #p<0.05 vs DL-Hcy/D-Glu-treated HAECs. Cbs, cystathionine β-synthase; eNOS, endothelial nitric oxide synthase; eNOS-pThr495/497, phosphorylation of eNOS at threonine 497 (mouse)/495 (human).
Human aortic endothelial cells (HAECs) were cultured in cell culture medium (M199, HyClone) as previously described (Wang et al., 1997, J Biol Chem 272:25380-25385). The HAECs were treated with DL-Hcy (200 or 500 μmol/L) and/or D-glucose (D-Glu, 25 mmol/L) for 24 or 48 hrs in the presence or absence of selected pharmacological inhibitors or siRNA or adenovirus.

In another test the test system is calpain. Nature of the test: t-BOC calpain activity assay in intact HAECs. The following applies: HAECs; DL-Hcy 500 μmol/L and/or D-Glu 25 mmol/L for 48 hrs. As to the method:
(FIG. 5A). In situ .O2^− production in aorta. (FIG. 5B). Nitrotyrosine (3-NT) levels. Aortic paraffin-cross sections (7 μm) from Cbs^−/+ mice were stained with 3-NT antibody and 3,3′-diaminobenzidine (DAB, brown). (FIG. 5C). Urinary 8-isoprostane levels. At the age of 8-week, Cbs^+/+ and Cbs^−/+ mice were fed with a high methionine diet (HM, methionine: 2% w/w) for 8 weeks, and/or injected with streptozotocin (STZ, i.p., 40 mg/kg) for 5 consecutive days starting from the first day of experiment. Mice fed with a control diet (CT, methionine: 0.37% w/w) and injected with vehicle (50 mM citrate buffer) served as controls. Aortic cryo-cross sections (30 μm) from Cbs^−/+ mice were stained with the superoxide marker dihydroethidium (DHE, 3 μmol/L, 30 mins.). Urine was collected from 24 hrs metabolic cage. (FIG. 5D). Endothelium-dependent vascular relaxation in HHcy/HG CBS^−/+ mouse aorta in the presence of antioxidants. Arterial rings were pre-contracted with phenylephrine (1 μmol/L) and examined for relaxation to cumulative additions of ACh in the aorta of STZ-treated Cbs^−/+ mice on HM diet. The arterial rings were preincubated with antioxidants polyethylene glycol superoxide dismutase (PEG-SOD, 150 U/mL, Sigma #S9549), Tempol (1 mmol/L, Sigma #176141), or apocynin (10 μmol/L, Sigma #W508454) for 1 hr. n=3-5. *p<0.05 vs vehicle-treated Cbs^−/+ mice on CT diet; †p<0.05 vs vehicle-treated Cbs^−/+ mice on HM diet; ‡p<0.05 vs STZ-treated Cbs^−/+ mice on CT diet; #p<0.05 vs STZ-treated Cbs^−/+ mice on HM diet. (FIG. 5E). […] Calpain activity was measured by the fluorescent substrate t-BOC-Leu-Met-CMAC (T-BOC, 10 μmol/L, 30 min) Human aortic endothelial cells (HAECs, passage 8-9) were cultured in EC medium which contains 5 mmol/L D-glucose (D-Glu), treated with DL-homocysteine (DL-Hcy, 500 μmol/L) and/or D-Glu (25 mmol/L) with or without […] (150 U/mL) or MDL28170 (MDL, 20 μmol/L) for 48 hrs, or CTsiRNA and μ-calpsiRNA for 72 hrs. […] Transfection effect of μ-calpsiRNA in HAECs was detected by Western blot after transfected with the siRNA for indicated time. […]

Another test deals with eNOS. Nature of the test: eNOS protein levels in HAECs. As to the method: (FIG. 7A). eNOS protein levels in mouse aorta of Cbs^−/+ mice (Left Panel) and HAECs (Right Panel). (FIG. 7B). eNOS-pThr497/495 protein levels in mouse aorta of Cbs^−/+ mice (Left Panel) and in HAECs (Right Panel). At the age of 8-week, Cbs^−/+ mice were fed with a high methionine diet (HM, methionine: 2% w/w) for 8 weeks, and/or injected with streptozotocin (STZ, i.p., 40 mg/kg) for 5 consecutive days starting from the first day of experiment. Mice fed with a control diet (CT, methionine: 0.37% w/w) and injected with vehicle (50 mmol/L citrate buffer) served as controls. Human aortic endothelial cells (HAECs, passage 8-9) were cultured in EC medium which contains 5 mmol/L D-glucose (D-Glu), treated with DL-homocysteine (DL-Hcy, 500 μmol/L) and/or D-Glu (25 mmol/L). (FIG. 7C). eNOS-pThr495 protein levels in HAECs. […]

Consider MDL28170, for which, in the test with eNOS-pThr495 (HAECs with DL-Hcy 500 μmol/L and D-Glu 25 mmol/L 48 hrs, GFX 2 μmol/L 30 min, MDL 20 mmol/L 48 hrs, Adv-dnPKCβ2 200 MOI 72 hrs, siRNA 72 hrs), the “HHcy/HG-induced eNOS-pThr495” value is “completely rescued”.
`O=C[C@H](O)[C@@H](O)[C@H](O)[C@H](O)CO` [D-Glu, D-glucose] had a calpain activity increase in the test with calpain of 2.3 fold. Further, the eNOS-pThr497/495 levels increase in the test with eNOS-pThr495 worked out at 1.5 fold. The “effect on eNOS protein levels” value with eNOS (D-Glu 25 mmol/L, in the presence or absence of DL-Hcy) was “no effect”.
In the test with calpain, `NC(CCS)C(=O)O` (racemic) [DL-Hcy, DL-homocysteine] returned a calpain activity increase of 1.8 fold. The compound also showed an eNOS-pThr497/495 levels increase in the test on eNOS-pThr495 of 1.6 fold. The “decrease of eNOS protein levels” value with eNOS (DL-Hcy 500 μmol/L, 48 hrs) stood at 59%.
